{"source": "ChEMBL document CHEMBL1201862", "about": "“PubChem BioAssay data set” (2004)", "key": {"[1]": {"tested_on": "CHO", "assay": "CHO cell viability loss, potency – luminescence, cytotoxicity control for TLR9-MyD88 binding inhibitor project, dose response (AID 588339);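 note: CHO cells stably coexpressing TLR9 and MyD88 fusions from primary screen; compound exposure lasted 48 hours before viability readout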", "assay_type": "functional, cell-based, hamster", "details": "Cricetulus griseus"}, "[2]": {"target": "Beta Lactamase (Pseudomonas aeruginosa, UniProt Q932Y6)", "sequence (Q932Y6 whole entry)": "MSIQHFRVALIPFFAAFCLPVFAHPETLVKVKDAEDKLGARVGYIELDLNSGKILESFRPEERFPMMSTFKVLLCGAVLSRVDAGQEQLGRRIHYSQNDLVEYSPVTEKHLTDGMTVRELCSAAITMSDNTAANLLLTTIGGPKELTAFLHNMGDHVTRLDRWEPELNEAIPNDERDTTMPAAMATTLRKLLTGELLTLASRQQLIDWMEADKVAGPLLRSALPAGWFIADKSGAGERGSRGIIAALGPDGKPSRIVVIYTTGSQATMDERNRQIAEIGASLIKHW", "assay": "BLA reporter interference, concentration series – BLA reporter cells, FRET fluorescence, artefact control for TLR9-MyD88 binding inhibitor project, dose response (AID 588341)", "assay_type": "cell-based"}, "[3]": {"tested_on": "BJ", "assay": "cells", "assay_type": "functional, cell-based", "details": "Homo sapiens"}, "[4]": {"assay": "viability loss of HMLE_sh_eGFP cells – cell-based, luminescence, counter-screen for HMLE_sh_ECad selective toxicity project, dose response (AID 463074);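 note: HMLE human mammary epithelial cells expressing control shRNA against eGFP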", "assay_type": "functional, Homo sapiens"}, "[5]": {"assay": "NIH3T3 cell viability loss – ATP luminescence, mouse fibroblasts, counter-screen, dose response (AID 2010);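 note: cells exposed to compound for about 90 hours before reading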", "assay_type": "functional, cell-based"}, "[6]": {"tested_on": "BJ", "assay": "BJ-TERT fibroblast viability loss – cell-based, RAS-independent, luminescence, dose response (AID 1933)", "assay_type": "functional", "details": "Homo sapiens"}, "[7]": {"assay": "DRD fibroblast viability loss – cell-based, non-viral oncogenic, luminescence, dose response (AID 1934)", "assay_type": "functional", "details": "Homo sapiens"}, "[8]": {"tested_on": "BJ", "assay": "BJ-TERT-LT-ST fibroblast viability loss – cell-based, RAS-independent, luminescence, dose response (AID 1935);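 note: BJ fibroblasts immortalized with TERT plus LT and ST oncogenes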", "assay_type": "functional", "details": "Homo sapiens"}, "[9]": {"assay": "Trypanosoma cruzi growth suppression in host cells – NIH3T3 host cells, beta-gal luminescence, confirmation (AID 2044);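 note: intracellular parasites grown in NIH/3T3 mouse fibroblasts as host cells; luminescent beta-galactosidase reporter signal from transgenic T. cruzi replicating inside host cells; inhibitors lower the luminescence signal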", "assay_type": "functional, cell-based"}, "[10]": {"assay": "Luminescence Cell-Based Dose Retest to Confirm Inhibitors of Cancer Stem Cells. [Related pubchem assays (depositor defined):AID2717, AID2721]", "assay_type": "functional", "details": "Homo sapiens"}, "[11]": {"target": "UDP-galactopyranose mutase (Mycobacterium tuberculosis, UniProt P9WIQ1)", "sequence (P9WIQ1 whole entry)": "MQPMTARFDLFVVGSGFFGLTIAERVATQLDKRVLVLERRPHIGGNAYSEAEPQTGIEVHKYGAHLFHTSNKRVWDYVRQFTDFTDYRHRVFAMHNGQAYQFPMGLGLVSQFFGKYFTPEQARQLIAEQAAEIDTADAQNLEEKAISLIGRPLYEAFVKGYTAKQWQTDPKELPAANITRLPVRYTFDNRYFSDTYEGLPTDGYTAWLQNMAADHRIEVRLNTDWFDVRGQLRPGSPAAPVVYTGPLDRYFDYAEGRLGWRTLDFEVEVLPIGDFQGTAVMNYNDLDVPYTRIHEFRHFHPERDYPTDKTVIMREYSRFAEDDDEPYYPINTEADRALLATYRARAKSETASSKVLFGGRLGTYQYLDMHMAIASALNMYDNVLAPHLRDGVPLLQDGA", "assay": "Inhibitors of Mycobacterium tuberculosis UDP-galactopyranose mutase (UGM) enzyme Measured in Biochemical System Using Plate Reader - 2105-02_Inhibitor_Dose_CherryPick_Activity. [Related pubchem assays (depositor defined):AID504439]"}, "[12]": {"assay": "T. cruzi infection blockers in NIH3T3 cells – beta-gal luminescence, NIH3T3 host cells, confirmation (AID 2630)", "assay_type": "functional, cell-based", "details": "Mus musculus"}, "[13]": {"tested_on": "Candida albicans", "assay": "fluconazole-resistant Candida strain growth inhibitors – CaCi-8 strain, dry powder, set 4, dose response (AID 488950)", "assay_type": "functional, organism-based"}, "[14]": {"tested_on": "Candida albicans", "assay": "resistant Candida growth with fluconazole co-treatment – CaCi-8 strain, Alamar Blue, dry powder, set 2, dose response (AID 488909)", "assay_type": "functional, organism-based"}, "[15]": {"tested_on": "HEK293", "assay": "HEK293T cell viability loss, resazurin readout – resazurin fluorescence, cytotoxicity control for NF-kB activator project, SAR follow-up (AID 493251)", "assay_type": "functional, cell-based", "details": "Homo sapiens"}, "[16]": {"target": "T1, sn-1-specific diacylglycerol lipase ABHD11 (Mus musculus, UniProt Q8K4F5)", "T1 sequence (Q8K4F5 whole entry)": "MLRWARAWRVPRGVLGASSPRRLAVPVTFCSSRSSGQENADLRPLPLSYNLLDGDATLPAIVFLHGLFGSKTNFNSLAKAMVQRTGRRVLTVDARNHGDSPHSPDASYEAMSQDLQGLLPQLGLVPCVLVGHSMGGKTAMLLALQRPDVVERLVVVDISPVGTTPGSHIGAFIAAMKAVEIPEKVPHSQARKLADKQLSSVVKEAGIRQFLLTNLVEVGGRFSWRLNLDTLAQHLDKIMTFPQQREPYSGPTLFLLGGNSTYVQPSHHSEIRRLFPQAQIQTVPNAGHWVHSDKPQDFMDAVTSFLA", "assay": "Late stage assay provider results from the probe development effort to identify inhibitors of LYPLA1 and LYPLA2: Gel-based Activity-Based Protein Profiling (ABPP) IC50 for off-target ABHD11. [Related pubchem assays (depositor defined):AID2174, AID2202, AID2203, AID2233, AID504482, AID504498, AID504505, AID504507, AID504510, AID504520, AID504522, AID504892]", "assay_type": "functional"}, "[17]": {"target": "T1, sn-1-specific diacylglycerol lipase ABHD11", "assay": "Late stage assay provider results from the probe development effort to identify inhibitors of LYPLA1: fluorescence-based cell-based gel-based Activity-Based Protein Profiling (ABPP) IC50 for anti-target ABHD11. [Related pubchem assays (depositor defined):AID2174, AID2177, AID2202, AID2203, AID2232, AID2233, AID493105, AID493108, AID493109, AID493110, AID493111, AID493154, AID493161, AID504892]", "assay_type": "functional"}, "[18]": {"target": "Voltage-gated inwardly rectifying potassium channel KCNH2 (Homo sapiens, UniProt Q12809)", "sequence (Q12809 whole entry)": "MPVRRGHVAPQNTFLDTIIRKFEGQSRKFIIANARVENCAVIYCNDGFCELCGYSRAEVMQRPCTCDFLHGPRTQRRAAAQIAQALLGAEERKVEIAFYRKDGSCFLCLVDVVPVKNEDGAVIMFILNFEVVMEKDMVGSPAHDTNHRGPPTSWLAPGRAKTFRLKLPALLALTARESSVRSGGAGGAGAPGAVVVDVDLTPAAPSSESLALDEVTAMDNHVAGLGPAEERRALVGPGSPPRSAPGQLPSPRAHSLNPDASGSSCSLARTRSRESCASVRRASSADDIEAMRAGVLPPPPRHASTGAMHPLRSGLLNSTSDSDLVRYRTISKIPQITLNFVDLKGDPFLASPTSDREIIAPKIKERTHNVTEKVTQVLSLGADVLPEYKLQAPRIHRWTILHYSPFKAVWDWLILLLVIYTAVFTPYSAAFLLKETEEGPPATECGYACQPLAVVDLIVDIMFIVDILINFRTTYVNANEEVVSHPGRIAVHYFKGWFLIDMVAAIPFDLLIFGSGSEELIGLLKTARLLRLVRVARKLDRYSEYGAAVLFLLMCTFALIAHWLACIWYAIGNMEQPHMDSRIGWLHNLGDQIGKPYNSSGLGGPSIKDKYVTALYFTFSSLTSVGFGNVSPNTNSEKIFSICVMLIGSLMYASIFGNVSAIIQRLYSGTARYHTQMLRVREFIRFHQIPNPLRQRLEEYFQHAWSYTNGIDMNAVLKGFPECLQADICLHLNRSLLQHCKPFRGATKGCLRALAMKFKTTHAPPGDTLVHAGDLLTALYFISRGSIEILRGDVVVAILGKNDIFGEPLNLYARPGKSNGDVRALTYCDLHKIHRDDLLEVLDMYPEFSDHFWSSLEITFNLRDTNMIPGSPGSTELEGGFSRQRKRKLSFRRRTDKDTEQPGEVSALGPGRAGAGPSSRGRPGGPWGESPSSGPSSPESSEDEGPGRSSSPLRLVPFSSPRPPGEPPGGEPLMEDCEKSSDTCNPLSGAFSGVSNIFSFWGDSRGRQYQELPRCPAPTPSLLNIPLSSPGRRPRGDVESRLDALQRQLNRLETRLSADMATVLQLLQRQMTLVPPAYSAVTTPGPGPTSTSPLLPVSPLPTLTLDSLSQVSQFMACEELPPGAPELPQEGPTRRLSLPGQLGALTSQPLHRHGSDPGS", "details": "Potency"}}, "note": "Active and inactive are the calls of the source."}
{"compound": "Cc1nn(C)c(C)c1N1C(=O)c2cccc3c(Br)ccc(c23)C1=O", "values": [{"measurement": "IC50", "setting": "[1]", "value": "7.3 µM (active)"}, {"measurement": "IC50", "setting": "[2]", "value": "5.72 µM (active)"}]}
{"compound": "CN1CCN(c2ccc(C(=O)c3ccccc3)cc2[N+](=O)[O-])CC1", "values": [{"measurement": "EC50", "setting": "[3]", "value": "> 150 µM (not active)"}, {"measurement": "AC50", "setting": "[4]", "value": "77.6 µM (active)"}, {"measurement": "EC50", "setting": "[5]", "value": "> 60 µM (not active)"}, {"measurement": "EC50", "setting": "[6]", "value": "> 150 µM (not active)"}, {"measurement": "EC50", "setting": "[7]", "value": "> 150 µM (not active)"}, {"measurement": "EC50", "setting": "[8]", "value": "> 150 µM (inconclusive)"}, {"measurement": "EC50", "setting": "[9]", "value": "0.399 µM (active)"}, {"measurement": "AC50", "setting": "[10]", "value": "2.09 µM (active)"}]}
{"compound": "O=C(COC(=O)c1ccc([N+](=O)[O-])o1)NC1CCCC1", "values": [{"measurement": "AC50", "setting": "[11]", "value": "> 500 µM (inactive)"}]}
{"compound": "Cc1ccc(NC(=O)CCC(=O)N/N=C/c2ccc(C)o2)c(C)c1", "values": [{"measurement": "EC50", "setting": "[12]", "value": "195 µM (inactive)"}]}
{"compound": "O=C(c1ccc(Cl)cc1)N1CCCN(c2ccnc3cc(Cl)ccc23)CC1", "values": [{"measurement": "AC50", "setting": "[13]", "value": "12.7 µM (active)"}, {"measurement": "AC50", "setting": "[14]", "value": "< 0.195 µM (active)"}]}
{"compound": "Cc1oc(-c2ccccc2)nc1CSCC(=O)NCc1ccco1", "values": [{"measurement": "IC50", "setting": "[15]", "value": "> 80 µM (inactive)"}]}
{"compound": "CCC1CCCCN1C(=O)n1ncc(C(O)(c2ccccc2)c2ccccc2)n1", "note": "(stereo not drawn)", "values": [{"measurement": "IC50", "setting": "[16]", "value": "0.015 µM (active)"}, {"measurement": "IC50", "setting": "[17]", "value": "0.000678 µM (active)"}]}
{"compound": "C(=C/c1ccccc1)/c1ccccc1", "values": [{"measurement": "AC50", "setting": "[18]", "value": "22.4 µM (inconclusive)"}]}
